Data reported in ChEMBL document CHEMBL1142808, “O-Methylglucogalloyl esters: synthesis and evaluation of their antimycotic activity” (2005).
≈ marks a conversion by molar mass, not a printed value.

Tests used:
Assay type in all cases: functional
[1] = Minimum inhibitory concentration (mixture of alpha and beta) against Issatchenkia orientalis DBVPG 6782; details: Pichia kudriavzevii
Nakaseomyces glabratus [2] = test: Minimum inhibitory concentration (mixture of alpha and beta) against Candida glabrata DBVPG 3828
Candida albicans [3] = test: Minimum inhibitory concentration (mixture of alpha and beta) against Candida albicans DBVPG 6133
[4] = Minimum inhibitory concentration in association with mixture of alpha/beta O-methylgluco-2,3-digalloyl ester (49.8 µg/mL) against Issatchenkia orientalis DBVPG 6782; details: Pichia kudriavzevii
Candida albicans [5] = test: Minimum inhibitory concentration in association with gallic acid (34.0 µg/mL) against Candida albicans DBVPG 6133
Nakaseomyces glabratus [6] = test: Minimum inhibitory concentration against Candida glabrata DBVPG 3828
[7] = Minimum inhibitory concentration in association with methyl gallate (36.8 µg/mL) against Issatchenkia orientalis DBVPG 6782; details: Pichia kudriavzevii
Nakaseomyces glabratus [8] = test: Minimum inhibitory concentration in association with mixture of alpha/beta O-methylgluco-2,3-digalloyl ester (49.8 µg/mL) against Candida glabrata DBVPG 3828
Nakaseomyces glabratus [9] = test: Minimum inhibitory concentration in association with gallic acid (34.0 µg/mL) against Candida glabrata DBVPG 3828
[10] = Minimum inhibitory concentration in association with gallic acid (34.0 µg/mL) against Issatchenkia orientalis DBVPG 6782; details: Pichia kudriavzevii
Candida albicans [11] = test: Minimum inhibitory concentration against Candida albicans DBVPG 6133
Candida albicans [12] = test: Minimum inhibitory concentration in association with methyl gallate (36.8 µg/mL) against Candida albicans DBVPG 6133
Candida albicans [13] = test: Minimum inhibitory concentration in association with mixture of alpha/beta O-methylgluco-2,3-digalloyl ester (49.8 µg/mL) against Candida albicans DBVPG 6133
[14] = Minimum inhibitory concentration against Issatchenkia orientalis DBVPG 6782; details: Pichia kudriavzevii
Nakaseomyces glabratus [15] = test: Minimum inhibitory concentration in association with methyl gallate (36.8 µg/mL) against Candida glabrata DBVPG 3828

Row | SMILES | MIC [1] | MIC (Nakaseomyces glabratus [2]) | MIC (Candida albicans [3]) | MIC [4] | MIC (Candida albicans [5]) | MIC (Nakaseomyces glabratus [6]) | MIC [7] | MIC (Nakaseomyces glabratus [8]) | MIC (Nakaseomyces glabratus [9]) | MIC [10] | MIC (Candida albicans [11]) | MIC (Candida albicans [12]) | MIC (Candida albicans [13]) | MIC [14] | MIC (Nakaseomyces glabratus [15])
1 | COC1O[C@H](CO)[C@@H](O)[C@H](OC(=O)c2cc(O)c(O)c(O)c2)[C@H]1OC(=O)c1cc(O)c(O)c(O)c1 (stereo not given in full) | > 4670 µg/mL | > 4670 µg/mL | 1940 µg/mL (≈ 3890 µM) |  |  |  |  |  |  |  |  |  |  |  | 
2 | C[C@@H]1[C@H](O)[C@@H](C)/C=C/C=C/C=C/C=C/C=C/C=C/C=C/[C@H](O[C@@H]2O[C@H](C)[C@@H](O)[C@H](N)[C@@H]2O)C[C@@H]2O[C@](O)(C[C@@H](O)C[C@@H](O)[C@H](O)CC[C@@H](O)C[C@@H](O)CC(=O)O[C@H]1C)C[C@H](O)[C@H]2C(=O)O [AMPHOTERICIN B] |  |  |  | 2.05 µg/mL (≈ 2.22 µM) | 0.09 µg/mL (≈ 0.0974 µM) | 1.06 µg/mL (≈ 1.15 µM) | 45 µg/mL (≈ 48.7 µM) | 0.05 µg/mL (≈ 0.0541 µM) | 1 µg/mL (≈ 1.08 µM) | 8 µg/mL (≈ 8.66 µM) | 1.06 µg/mL (≈ 1.15 µM) | 0.09 µg/mL (≈ 0.0974 µM) | 0.05 µg/mL (≈ 0.0541 µM) | > 100 µg/mL | 0.09 µg/mL (≈ 0.0974 µM)
